Results taken from patent EP3492483A1, “COMPOUNDS AND METHODS FOR TREATING BACTERIAL INFECTIONS” (The Washington University, priority 2009, dated 2011).
≈ marks a conversion by molar mass, not a printed value. Entries after “also recorded” stand apart in the source; their conditions may differ.

What was measured:
FimH [1] = target: T1, FimH (Escherichia coli, UniProt P08191); settings: previously reported, SPR; cited from earlier work
FimH [2] = target: T1, FimH
Description: In order to more accurately determine the relative contributions of both binding affinity to FimH versus other compound properties to the potency seen in the cellular HA titer assay, a high-throughput fluorescence polarization (FP) (or anisotropy) competitive binding assay was developed using a fluorescent-labeled mannoside ligand shown in Scheme 4.
A fluorescent polarization assay was developed and miniaturized to monitor the direct binding of a synthesized fluorescently labeled butyl mannose derivative to the FimH receptor as well as competitive displacement by other synthetic mannosides. This fluorescent polarization assay provides a rapid method for monitoring improvements to receptor affinity during the synthetic process, as well as providing Kd binding affinity measurements.

UTI89 [3] = test: Bladder bacterial titer (CFU), mouse UTI model, UTI89; type: in vivo, mice; settings: for total bacterial CFUs: 6 hpi
Description: (§1) After invasion, UPEC are able to rapidly replicate to form IBCs, thus dramatically expanding in numbers. After maturation of the IBC, bacteria are able to disperse from the biomass and spread to neighboring cells to expand the buildup in bacterial numbers via next generation IBC. The ability of mannosides to block IBC formation was evaluated based on LacZ staining of whole mount bladders, a protocol developed to enumerate IBCs. Whole bladder titers were also determined by quantifying colony forming units (CFUs) at 6 hours post-infection and later time points as test compounds were further developed.
Animal infections. Bacteria were grown under type 1 pili-inducing conditions (2x24 h at 37°C statically in LB). The bacteria were harvested and resuspended to an OD600 of 0.5 in PBS. Eight-week-old C3H/HeN (Harlan) female mice were anesthetized by inhalation of isoflurane and infected via transurethral catheterization with 50 µl of the bacterial suspension, resulting in 1-2 x 10^7 inoculum. At 6 hpi, mice were sacrificed by cervical dislocation under anesthesia and the bladders were immediately harvested and processed as described below. All animal studies using mice were approved by the Animal Studies Committee of Washington University (Animal Protocol Number 20100002).
Bladder tissue bacterial titer determination. Mannoside ZFH-2056 was administered either IP (5 mg/kg) or orally (100 mg/kg) 30 min prior to inoculation with UTI89. To enumerate the bacteria present, mice were sacrificed at 6 hpi and bladders were aseptically removed and homogenized in 1 ml PBS, serially diluted and plated onto LB agar plates. CFU was enumerated after 16 h of growth at 37 °C.

FimH [4] = target: T2, FimH (Escherichia coli, UniProt Q1R2J4); test: cell-based; parameters: species or system UPEC
T2 construct: endogenous in cells; host or cells: type 1 piliated UPEC bacteria
Description: In some embodiments, activity of the compound is measured using hemmagglutination titer of guinea pig red blood cells. Hemagglutination of guinea pig red blood cells by type1 piliated UPEC is dependent upon FimH mannose binding ability and serial dilutions allow a quantitative analysis.
Biological activity against FimH was evaluated using a guinea pig red blood cell-based hemagglutination (HA) assay (ref) in which the concentration of the mannoside on reducing agglutination by 50% was used as the primary endpoint (50% HA titer).
Hemagglutination of guinea pig red blood cells by type1 piliated UPEC is dependent upon FimH mannose binding ability.

UTI89 [5] = test: Gentamicin protection assay of infected mouse bladders; type: in vivo, mice; settings: 6 hpi, IP (5 mg/kg) pretreatment
Description: Based on the extensive elucidation of the UPEC pathogenic cascade, critical nodes in pathogenesis that mannosides would target and thereby have powerful and potent therapeutic ramifications were identified. The first step in the UPEC pathway involves FimH-mediated colonization of the bladder epithelium via the recognition of mannose receptors. Bacterial invasion into superficial bladder umbrella cells can then ensue. […] To test this, a well-established gentamicin protection assay that allows the determination of the luminally bound fraction versus the intracellular fraction was utilized (Fig 10). […] This may be due to contamination from bacteria in the urine or bacteria that are non-specifically associated with the epithelium. In any case, blocking invasion blocks the ability of the bacteria to rapidly expand in numbers. This is due to the ability of the mannosides to block the IBC mechanism.
The efficacy of in vivo mannoside treatment was evaluated after dosing animals with mannoside either IP or PO 30 min prior to infecting with UTI89. At 6 hpi the bladders were removed and total bacterial CFUs were quantitated. […] Gentamicin efficiently kills extracellular UPEC but is unable to penetrate tissue and thus intracellular bacteria survive gentamicin treatment18. […] In bladders from untreated mice, 10^3 - 10^4 CFUs remained after gentamicin treatment.
Gentamicin protection assay. […] The bladders were then bisected twice and washed three times in 500 µl of PBS each. The wash fractions were pooled, lightly spun at 500 rpm for 5 min to pellet exfoliated bladder cells, serially diluted, and plated onto LB agar to obtain the luminal fraction. The bladders were treated with 100 µg of gentamicin/ml for 90 min at 37°C. After treatment, the bladders were washed twice with PBS to eliminate residual gentamicin, homogenized in 1 ml of PBS, serially diluted, and plated onto LB agar to enumberate the CFUs in the intracellular fraction.

PBC-1 [6] = test: Growth curve with TMP-SMZ (MIC); type: cell-based, UPEC
[7] = Solubility (qualitative statements); settings: relative to di-ester 15a
UTI89 [8] = test: IBC enumeration by LacZ staining of whole bladders; type: in vivo, mice
Description: as §1
To test the efficacy of the mannosides in vivo, UTI89 expressing type 1 pili were pre-incubated with mannosides, inoculated into mice and IBCs were quantitated at 6 hours post-infection (hpi).
Enumeration of bladder IBCs. For bacterial pretreatment experiments, mannoside was added to the bacterial suspension and incubated for 20 min. For animal pretreatment experiments, mannoside ZFH-2056 was administered either IP (5 mg/kg) or orally (100 mg/kg) 30 min prior to inoculation with UTI89. To accurately count the number of IBCs, mice were sacrificed 6 hpi and bladders were aseptically removed, bisected, splayed on silicone plates and fixed in 2% paraformaldehyde (v/v). IBCs, readily discernable as punctate violet spots, were quantified by LacZ staining of whole bladders.

UTI89 [9] = test: Bladder bacterial titer (CFU), mouse UTI model, UTI89; type: in vivo, mice; settings: for bacterial titers upon boosting: pretreatment plus 2 treatments every 8h
PBC-1 [10] = test: Bladder bacterial titer (CFU), mouse UTI model, TMP-SMZ resistant strain; type: in vivo, mice
Description: (§2) Mice were either untreated or IP treated with mannoside ZFH-2056 30 min prior to inoculation with bacteria. […] Not only do the bacteria escape the immune system in their intracellular niche, they are also able to escape exposure to effective antibiotics.

UTI89 biofilm [11] = test: Disruption of preformed biofilm; type: cell-based, UPEC; settings: for IC50: another 24h
Description: (§3) These mannosides were evaluated first for their ability to inhibit biofilm formation or disrupt preformed biofilms. Biofilm inhibition was evaluated on FimH-dependent UTI89 biofilms grown on PVC in LB at room temperature. […] Biofilm disruption was evaluated by the addition of mannosides to preformed 24 h biofilms followed by growth for an additional 16 h.
For biofilm disruption activity in PVC plates, UTI89 was grown in LB broth in wells of PVC microtiter plates at 23°C. After 24 h of growth, mannoside was added and biofilms were grown for an additional 16h. Wells were then rinsed, stained with crystal violet and quantified. For biofilm disruption activity on PVC coverslips, UTI89 was grown in LB broth in 50 mL conicals containing PBC coverslips at 23°C. […] Coverslips were then rinsed, fixed with 2% paraformaldehyde (v/v), stained with SYTO9 (1:1000 in PBS; Molecular Probes) and observed with a Zeiss LSM410 confocal laser scanning microscope under a 63X objective.
UTI89 was grown in LB in PVC plates and allowed to form biofilm at RT for 24 or 48h. […] Biofilm was then allowed to grow for another 24h at RT. Biofilm formation was then quantitated using the standard crystal violet assay.

UTI89 biofilm [12] = test: Biofilm formation inhibition assay (PVC, crystal violet); type: cell-based, UPEC; settings: PVC, LB, room temperature; read-out: IC50 of mannoside on UTI89 biofilm formation
Description: First, the ability of mannoside derivatives to prevent UPEC type 1 dependent biofilm formation in the published Kolter assay was measured as optimized for the prototypic UTI89 strain used in these assays.
as §3
UTI89 biofilm was grown in LB +/- mannoside for 24 h at 22°C in PVC plates and quantitated using crystal violet.
Biofilm assay. UTI89 was grown in LB broth in wells of PVC microtiter plates at 23°C in the presence of individual mannosides at varying concentrations. After 48 h of growth, wells were rinsed with water and stained with crystal violet for quantification as described. For biofilm disruption activity in PVC plates, UTI89 was grown in LB broth in wells of PVC microtiter plates at 23°C. After 24 h of growth, mannoside was added and biofilms were grown for an additional 16h. Wells were then rinsed, stained with crystal violet and quantified.

[13] = Urine pharmacokinetic analysis of mannoside (LC-MS); type: in vivo, mice
Description: Pharamacokinetic analysis. […] An equal volume of 10 µM internal standard (ZFH-2050) was added to the urine.

[14] = 3 days of 54 µg/ml TMP and 270 µg/ml SMZ in drinking water
Description: as §2
Antibiotic treatment. […] Water was changed daily for 3 days prior to inoculation with UTI89.

## CCCCO[C@H]1O[C@H](CO)[C@@H](O)[C@H](O)[C@@H]1O [Butylαman, α-D-butylmannoside, reference compound]
FimH [1]
  Kd: 0.151 µM
FimH [2]
  EC50: 0.245 µM

## CNC(=O)c1cc(C(=O)NC)cc(-c2ccc(O[C@H]3O[C@H](CO)[C@@H](O)[C@H](O)[C@@H]3O)cc2)c1 [Compound 50, N1,N3-dimethyl-5-[4-[(2R,3S,4S,5S,6R)-3,4,5-trihydroxy-6-(hydroxymethyl)tetrahydropyran-2-yl]oxyphenyl]benzene-1,3-dicarboxamide]
UTI89 [3]; 5mg/kg 30 min prior, 10^7 UTI89, 6 hpi
  bladder titers: significantly inhibited bacterial infection
UTI89 [3]; IP (5 mg/kg) 30 min prior to inoculation, listed as ZFH-2056, 5 mg/kg
  total bacterial CFUs: significant drop in bacterial counts; also recorded: significant drop in bacterial load
UTI89 [3]; oral (100 mg/kg) 30 min prior to inoculation
  total bacterial CFUs: significant drop in bacterial counts
FimH [4]
  EC50: 0.37 µM
FimH [4]; HA titer vs FP EC50
  difference in cell potency vs. binding (drop in cell activity relative to binding): 4 fold
FimH [4]; in words
  inhibition of FimH-dependent hemagglutination: potent inhibitors
FimH [4]; read-out: HA 50% titer EC90
  EC90: 0.37 µM
UTI89 [5]
  luminal bacteria: significantly reduced
UTI89 [5]; listed as ZFH-2056
  intracellular bacteria (CFUs after gentamicin): eliminated all CFUs; also recorded: significantly reduced
PBC-1 [6]; 100 µM mannoside
  effect on efficacy of TMP-SMZ killing: not found to increase the efficacy of TMP-SMZ killing
[7]
  solubility: much improved solubility
UTI89 [8]; 6 hpi, UTI89 pre-incubated with 10 µM
  IBCs: most significant reduction in IBCs
UTI89 [8]; 10^6 inoculum, 6h
  IBC counts in the bladder: no IBCs observed
UTI89 [8]; IP (5 mg/kg) 30 min prior to inoculation, 6 hpi
  IBC quantification: significant reduction in IBCs
UTI89 [8]; oral (100 mg/kg) 30 min prior to inoculation, 6 hpi
  IBC quantification: significant reduction in IBCs
UTI89 [9]; 5mg/kg 30 min prior, 10^7 UTI89, 24 hpi
  bladder titers: significantly reduced bacterial titers
UTI89 [9]; 50mg/kg 30 min prior, 10^7 UTI89, 6 hpi
  bladder titers: significantly inhibited bacterial infection
UTI89 [9]; 50mg/kg 30 min prior, 10^7 UTI89, 24 hpi
  bladder titers: significantly reduced bacterial titers
UTI89 [9]; 10^6 inoculum, single dose 5mg/kg 30 min prior
  2 week titers: significant decrease in bacterial load
UTI89 [9]; 10^6 inoculum, treated vs untreated mice
  bacterial titers: significant decrease
UTI89 [9]; 24hpi, 5mg/kg IP 1h post-infection plus 2 treatments every 8h
  bacterial titers, post-infection treatment: no efficacy observed
UTI89 [9]; 24hpi, 10^6 inoculum
  bacterial titers upon boosting: not observed
UTI89 [9]; 24hpi, 10^7 inoculum
  bacterial titers upon boosting: further efficacy
UTI89 [9]; 24hpi, single IP pretreatment 5mg/kg, 10^7 and 10^6 inoculum
  bacterial titers: significant drop in bacterial titers
PBC-1 [10]; Fig. 29
  efficacy against TMP-SMZ resistant strains: increased efficacy
PBC-1 [10]; IP 30 min prior to inoculation, 6 hpi
  bacterial load in the bladder: significant drop in bacterial load
UTI89 biofilm [11]; 0.3 µM, 24 h biofilm plus 16 h
  biofilm structure by confocal microscopy: lacked continuity
UTI89 biofilm [11]; mannoside added at 24h
  IC50: ~6 µM
UTI89 biofilm [11]; mannoside added at 48h
  IC50: ~25 µM
FimH [2]
  EC50: 0.087 µM
UTI89 biofilm [12]
  IC50: 0.74 µM
[13]; 100 mg/kg PO
  lower initial urine concentration versus IP: 10 fold
[13]; 100 mg/kg PO, 8 hours post-dosing
  higher urine levels versus IP: 10 fold
[13]; IP 5 mg/kg and 10 mg/kg, 30 min after treatment
  concentration in the urine: ~5000 µM
[13]; IP dosing, post injection
  time by which mostly gone (eliminated in the urine): 6 to 8 h
[13]; mouse, in vivo
  drug cleared to the urine intact: > 95%
[13]; mouse, urine, IP, eight hours after dosing, read-out: level in the urine
  concentration at 8 h: ≤ 0.74 µM

## COc1cc(Cc2cnc(N)nc2N)cc(OC)c1OC [TMP, Trimethoprim]
PBC-1 [6]
  MIC: 256 µg/mL (≈ 882 µM)
[14]
  concentration in urine: 9950 ± 4360 µg/mL
